Measurements taken from publication PMC6102129, “Epigallocatechin-3-gallate remodels apolipoprotein A-I amyloid fibrils into soluble oligomers in the presence of heparin” (The Journal of Biological Chemistry, 2018).

Biological target: T1, monomeric apoA-I (Homo sapiens, UniProt P02647)
T1 construct: gene APOA1; mature apoA-I residues 3-243 from E. coli BL21(DE3), His tag removed by formic acid at Asp2-Pro3; soluble, lipid-free, monomeric, pH 7
Assay: WaterLOGSY NMR
Format: binding
Settings: 36 μM apoA-I, phosphate buffer pH 7, no heparin

T1 sequence (P02647 27-267): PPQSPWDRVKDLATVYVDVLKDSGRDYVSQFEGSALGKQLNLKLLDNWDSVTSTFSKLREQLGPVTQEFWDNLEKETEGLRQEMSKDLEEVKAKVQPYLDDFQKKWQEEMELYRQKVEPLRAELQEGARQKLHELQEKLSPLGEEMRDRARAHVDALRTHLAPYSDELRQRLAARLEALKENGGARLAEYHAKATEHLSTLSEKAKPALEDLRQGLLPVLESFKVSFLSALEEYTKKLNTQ

O=C(O[C@@H]1Cc2c(O)cc(O)cc2O[C@@H]1c1cc(O)c(O)c(O)c1)c1cc(O)c(O)c(O)c1 [compound 5, EGCG]
WaterLOGSY NMR: peaks from EGCG broaden and take the opposite sign to the TSP peak
